SMILES strings stand for the structures. Where two headings read alike, the source gives them in different places.

Broadly, the IC50 is the point on the concentration scale where inhibition reaches its midpoint.

The test system of one test is breast line MDA468. Nature of the test: In vitro cell culture growth assay (MTS), MDA468. It is filed as cell-based. The settings on record: Homo sapiens, 72 h, MDA468 cells, three days after drug treatment. An outline of the steps:
(§1)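 Plate cells; add inhibitors on day 1; after 3 days' treatment, add MTS; read A490; express as percent growth of vehicle-treated control.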

Another test concerns prostate line LNCap. In words: In vitro cell culture growth assay (MTS), LNCap. Format: cell-based. The settings on record: Homo sapiens, LNCaP, 72 h, LNCap cells, three days after drug treatment. The procedure, abridged:
as §1

Test [1] has as its target T1, PI3K (Homo sapiens, UniProt P48736).
T1 construct: PI3 Kinase γ IC50; other: PI3 Kinase γ; other: PI3 Kinase γ isoform, fluorescence polarization
Nature of the test: Fluorescence polarization assay for PI3K. Format: biochemical. The following applies: read-out: PI3 Kinase γ IC50. The procedure, abridged: (§2)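 Fluorescence-polarization competition readout: after 30–60 min of PIP2/ATP turnover in 1% DMSO, a stop mix with GST-GRP (70 nM) and red probe (10 nM) was added.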

Test [2] deals with T2, PI3K (Homo sapiens, UniProt P42336).
T2 construct: PI3 Kinase α IC50; other: PI3 Kinase α; other: PI3 Kinase α isoform, fluorescence polarization
In words: Fluorescence polarization assay for PI3K. Format: biochemical. The settings on record: read-out: PI3 Kinase α IC50. An outline of the steps: as §2
On the technique in general: Polarisation of emitted light reports the rotation of a fluorescent probe.

Another test concerns the target T3, Human mTOR (FLAG-TOR) (Homo sapiens, UniProt P42345).
T3 construct: FLAG
In words: Human mTOR kinase assay with purified enzyme, DELFIA format. Format: biochemical. An outline of the steps: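 DELFIA readout: Eu-anti-P(T389)-S6K antibody (40 ng/mL, 1 h) on captured His6-S6K from the stopped reaction. Kinase step used purified FLAG-tagged human mTOR with test compound in HEPES (pH 7.4)/MnCl2/DTT buffer, 2 h at room temperature (linear 1–6 h), terminated by EDTA/EGTA.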

Setting [3] is: PI3 Kinase γ isoform, fluorescence polarization.
[4] abbreviates: PI3 Kinase α isoform, fluorescence polarization.
Setting [5] is: purified human mTOR enzyme, DELFIA format.

T2 sequence (P42336 whole entry, canonical isoform): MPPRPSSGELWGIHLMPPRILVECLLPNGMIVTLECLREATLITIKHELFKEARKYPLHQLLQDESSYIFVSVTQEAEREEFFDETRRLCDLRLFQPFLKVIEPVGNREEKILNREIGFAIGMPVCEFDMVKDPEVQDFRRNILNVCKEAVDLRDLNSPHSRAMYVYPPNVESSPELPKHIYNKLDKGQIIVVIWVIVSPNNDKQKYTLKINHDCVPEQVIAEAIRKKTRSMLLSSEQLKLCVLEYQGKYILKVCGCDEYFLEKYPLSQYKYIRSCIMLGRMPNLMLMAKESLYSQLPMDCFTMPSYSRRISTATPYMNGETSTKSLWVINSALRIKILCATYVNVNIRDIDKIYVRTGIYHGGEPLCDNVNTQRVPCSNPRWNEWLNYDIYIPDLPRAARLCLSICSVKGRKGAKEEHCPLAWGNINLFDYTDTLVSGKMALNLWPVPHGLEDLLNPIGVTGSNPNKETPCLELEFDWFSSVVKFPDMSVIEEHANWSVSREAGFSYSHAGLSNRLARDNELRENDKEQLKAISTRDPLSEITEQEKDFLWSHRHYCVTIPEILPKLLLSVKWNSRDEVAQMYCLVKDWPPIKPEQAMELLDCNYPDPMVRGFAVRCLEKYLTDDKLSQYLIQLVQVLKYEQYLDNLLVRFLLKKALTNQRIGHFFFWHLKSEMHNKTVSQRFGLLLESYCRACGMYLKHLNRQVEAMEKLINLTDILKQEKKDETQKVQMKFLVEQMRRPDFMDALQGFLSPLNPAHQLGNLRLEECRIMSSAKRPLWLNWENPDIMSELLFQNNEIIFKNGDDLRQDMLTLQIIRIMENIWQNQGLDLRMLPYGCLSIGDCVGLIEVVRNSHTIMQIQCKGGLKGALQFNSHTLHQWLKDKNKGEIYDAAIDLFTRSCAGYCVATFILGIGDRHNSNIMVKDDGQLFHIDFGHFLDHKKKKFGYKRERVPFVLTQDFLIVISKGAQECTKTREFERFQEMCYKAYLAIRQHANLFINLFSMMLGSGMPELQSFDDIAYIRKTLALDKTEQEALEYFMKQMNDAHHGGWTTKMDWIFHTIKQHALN
T1 sequence (P48736 whole entry, canonical isoform): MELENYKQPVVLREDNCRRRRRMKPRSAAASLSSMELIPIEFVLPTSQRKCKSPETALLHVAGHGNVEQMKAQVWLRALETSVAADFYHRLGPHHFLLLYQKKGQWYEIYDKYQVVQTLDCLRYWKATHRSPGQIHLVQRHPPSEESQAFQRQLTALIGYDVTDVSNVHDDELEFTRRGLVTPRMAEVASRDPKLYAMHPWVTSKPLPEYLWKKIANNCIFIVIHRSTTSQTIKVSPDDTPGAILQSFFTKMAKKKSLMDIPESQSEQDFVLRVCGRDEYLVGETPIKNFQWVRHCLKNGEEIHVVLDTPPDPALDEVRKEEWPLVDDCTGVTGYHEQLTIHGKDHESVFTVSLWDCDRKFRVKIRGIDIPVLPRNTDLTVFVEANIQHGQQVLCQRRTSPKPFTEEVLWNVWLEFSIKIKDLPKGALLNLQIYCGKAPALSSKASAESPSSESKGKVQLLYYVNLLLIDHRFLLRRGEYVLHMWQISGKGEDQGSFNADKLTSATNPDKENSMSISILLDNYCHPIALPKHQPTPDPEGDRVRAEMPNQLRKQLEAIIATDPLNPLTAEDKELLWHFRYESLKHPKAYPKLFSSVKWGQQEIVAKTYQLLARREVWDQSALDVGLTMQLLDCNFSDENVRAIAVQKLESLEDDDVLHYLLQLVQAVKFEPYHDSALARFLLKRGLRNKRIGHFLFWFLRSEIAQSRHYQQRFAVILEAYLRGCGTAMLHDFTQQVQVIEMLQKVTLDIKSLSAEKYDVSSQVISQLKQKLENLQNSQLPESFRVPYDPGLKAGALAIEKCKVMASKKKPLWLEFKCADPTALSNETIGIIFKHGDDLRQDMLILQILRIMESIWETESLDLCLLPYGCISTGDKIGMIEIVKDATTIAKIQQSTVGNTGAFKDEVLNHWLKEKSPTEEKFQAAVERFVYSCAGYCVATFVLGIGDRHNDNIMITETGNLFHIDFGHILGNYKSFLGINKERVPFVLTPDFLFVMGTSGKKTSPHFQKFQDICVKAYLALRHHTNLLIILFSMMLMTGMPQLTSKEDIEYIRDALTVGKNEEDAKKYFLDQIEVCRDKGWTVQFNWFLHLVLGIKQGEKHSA

Regarding `CCn1ncc2c(N3CC4CCC(C3)O4)nc(-c3ccc(NC(=O)Nc4ccc(N5CCN(C)CC5)cc4)cc3)nc21` [Example 180, 1-{4-[1-ethyl-4-(8-oxa-3-azabicyclo[3.2.1]oct-3-yl)-1H-pyrazolo[3,4-d]pyrimidin-6-yl]phenyl}-3-[4-(4-methylpiperazin-1-yl)phenyl]urea], the IC50 is below 1 nM with breast line MDA468; below 1 nM in the test with prostate line LNCap; 1340 nM on PI3K [1] (PI3 Kinase γ); 56 nM at PI3K [2] (PI3 Kinase α); 0.275 nM against Human mTOR (FLAG-TOR).
`CCNC(=O)Nc1ccc(-c2nc(N3CC4CCC(C3)O4)c3cnn(CCF)c3n2)cc1` [Example 247, 1-ethyl-3-{4-[1-(2-fluoroethyl)-4-(8-oxa-3-azabicyclo[3.2.1]oct-3-yl)-1H-pyrazolo[3,4-d]pyrimidin-6-yl]phenyl}urea]: the IC50 in the test with breast line MDA468 is 400 nM; in the test on prostate line LNCap, 90 nM; at PI3K [1] (PI3 Kinase γ), above 10000 nM; at PI3K [2] (PI3 Kinase α) it was 1360 nM; at Human mTOR (FLAG-TOR), 0.7 nM.
For `CCn1ncc2c(N3CC4CCC(C3)O4)nc(-c3ccc(NC(=O)NCCCN(C)C)cc3)nc21` [Example 177, 1-[3-(dimethylamino)propyl]-3-{4-[1-ethyl-4-(8-oxa-3-azabicyclo[3.2.1]oct-3-yl)-1H-pyrazolo[3,4-d]pyrimidin-6-yl]phenyl}urea] the same measures were 4500 nM, 1200 nM, above 10000 nM, 1640 nM and 69.5 nM.
Consider `O=C(Nc1ccc(CO)cc1)Nc1ccc(-c2nc(N3C[C@@H]4C[C@H]3CO4)c3cnn(CC(F)(F)F)c3n2)cc1` [Example 294, 1-[4-(hydroxymethyl)phenyl]-3-(4-{4-[(1S,4S)-2-oxa-5-azabicyclo[2.2.1]hept-5-yl]-1-(2,2,2-trifluoroethyl)-1H-pyrazolo[3,4-d]pyrimidin-6-yl}phenyl)urea], for which the IC50 in the test on breast line MDA468 is 1 nM; in the test on prostate line LNCap it was below 1 nM; at PI3K [1] (PI3 Kinase γ), 3020 nM; on PI3K [2] (PI3 Kinase α), 220 nM; on Human mTOR (FLAG-TOR), 0.775 nM.
For `Cn1ncc2c(N3CC4CCC(C3)O4)nc(-c3cccc(O)c3)nc21` [Example 61, 3-[1-methyl-4-(8-oxa-3-azabicyclo[3.2.1]oct-3-yl)-1H-pyrazolo[3,4-d]pyrimidin-6-yl]phenol] the same measures were 7600 nM, 1800 nM, 1840 nM, 903 nM and 90 nM.
Regarding `O=C(Nc1ccc(-c2nc(N3CC4CCC(C3)O4)c3cn[nH]c3n2)cc1)Nc1cccnc1` [Example 91, 1-{4-[4-(8-oxa-3-azabicyclo[3.2.1]oct-3-yl)-1H-pyrazolo[3,4-d]pyrimidin-6-yl]phenyl}-3-pyridin-3-ylurea], the IC50 in the test on breast line MDA468 was determined as 120 nM; in the test with prostate line LNCap it was 500 nM; on PI3K [1] (PI3 Kinase γ), 2640 nM; on PI3K [2] (PI3 Kinase α), 306 nM; at Human mTOR (FLAG-TOR) it was 0.49 nM.
On to `CS(=O)(=O)N1CCN(Cc2cc3nc(-c4ccc(NC(=O)Nc5ccccc5)cc4)nc(N4CC5CCC(C4)O5)c3s2)CC1` [Example 432, 1-{4-[6-{[4-(methylsulfonyl)piperazin-1-yl]methyl}-4-(8-oxa-3-azabicyclo[3.2.1]oct-3-yl)thieno[3,2-d]pyrimidin-2-yl]phenyl}-3-phenylurea], for which the IC50 worked out at 37 nM in the test with breast line MDA468; 4 nM in the test on prostate line LNCap; 522 nM on PI3K [1] (setting [3]); 6 nM on PI3K [2] (setting [4]); 1.3 nM against Human mTOR (FLAG-TOR) (setting [5]).
Taken in the same sequence, the figures for `CN1CCN(c2ccc(NC(=O)Nc3ccc(-c4nc(N5C[C@H]6C[C@@H]5CO6)c5cnn(CC(F)(F)F)c5n4)cc3)cc2)CC1` [Example 345, 1-[4-(4-methylpiperazin-1-yl)phenyl]-3-(4-{4-[(1R,4R)-2-oxa-5-azabicyclo[2.2.1]hept-5-yl]-1-(2,2,2-trifluoroethyl)-1H-pyrazolo[3,4-d]pyrimidin-6-yl}phenyl)urea] were 450 nM, 190 nM, above 10000 nM, 1920 nM and 38.5 nM.
In the case of `CCn1ncc2c(N3CC4CCC(C3)O4)nc(-c3ccc(NC(=O)NCCC(=O)NCCN(C)C)cc3)nc21` [Example 279], the IC50 in the test on breast line MDA468 was found to be 6000 nM; with prostate line LNCap, 3200 nM; at PI3K [1] (PI3 Kinase γ), 8110 nM; on PI3K [2] (PI3 Kinase α), 1830 nM; on Human mTOR (FLAG-TOR) it was 23.5 nM.
For `CN(C)c1ccc(NC(=O)Nc2ccc(-c3nc(N4CC5CCC(C4)O5)c4cnn(C)c4n3)cc2)cc1` [Example 233, 1-[4-(dimethylamino)phenyl]-3-{4-[1-methyl-4-(8-oxa-3-azabicyclo[3.2.1]oct-3-yl)-1H-pyrazolo[3,4-d]pyrimidin-6-yl]phenyl}urea] the same measures were 140 nM, 40 nM, above 10000 nM, 604 nM and 0.865 nM.
As to `COC1CCC(n2ncc3c(N4CC5CCC(C4)O5)nc(-c4ccc(NC(=O)Nc5ccc(C(=O)NN6CCCC6)cc5)cc4)nc32)CC1` (stereo not drawn) [Example 307, 4-[({4-[1-(4-methoxycyclohexyl)-4-(8-oxa-3-azabicyclo[3.2.1]oct-3-yl)-1H-pyrazolo[3,4-d]pyrimidin-6-yl]phenyl}carbamoyl)amino]-N-pyrrolidin-1-ylbenzamide], the IC50 in the test with breast line MDA468 was 2 nM; with prostate line LNCap, below 1 nM; at PI3K [1] (setting [3]) it was 4960 nM; on PI3K [2] (setting [4]), 404 nM; at Human mTOR (FLAG-TOR) (setting [5]) it was 0.145 nM.
As for `O=C(Nc1ccncc1)Nc1ccc(-c2nc(N3CC4CCC(C3)O4)c3cnn(CCF)c3n2)cc1` [Example 249, 1-{4-[1-(2-fluoroethyl)-4-(8-oxa-3-azabicyclo[3.2.1]oct-3-yl)-1H-pyrazolo[3,4-d]pyrimidin-6-yl]phenyl}-3-pyridin-4-ylurea], the IC50 with breast line MDA468 is 8 nM; with prostate line LNCap it was below 1 nM; on PI3K [1] (PI3 Kinase γ), 1200 nM; on PI3K [2] (PI3 Kinase α), 102 nM; against Human mTOR (FLAG-TOR) it was 0.185 nM.
`COC(=O)N1CCC(n2ncc3c(N4CC5CCC(C4)O5)nc(-c4ccc(NC(=O)OCCN(C)C)cc4)nc32)CC1` [Example 115, methyl 4-{6-[4-({[2-(dimethylamino)ethoxy]carbonyl}amino)phenyl]-4-(8-oxa-3-azabicyclo[3.2.1]oct-3-yl)-1H-pyrazolo[3,4-d]pyrimidin-1-yl}piperidine-1-carboxylate]: the IC50 turned out to be 4600 nM in the test on breast line MDA468; 1600 nM in the test on prostate line LNCap; 8930 nM at PI3K [1] (PI3 Kinase γ); 5060 nM on PI3K [2] (PI3 Kinase α); 360 nM at Human mTOR (FLAG-TOR).
In the case of `CCn1ncc2c(N3CC4CCC(C3)O4)nc(-c3ccc(NC(=O)Nc4ccc(OCCN(C)C)cc4)cc3)nc21` [Example 186, 1-{4-[2-(dimethylamino)ethoxy]phenyl}-3-{4-[1-ethyl-4-(8-oxa-3-azabicyclo[3.2.1]oct-3-yl)-1H-pyrazolo[3,4-d]pyrimidin-6-yl]phenyl}urea], the IC50 with breast line MDA468 was 8 nM; with prostate line LNCap, below 1 nM; at PI3K [1] (PI3 Kinase γ), 1780 nM; on PI3K [2] (PI3 Kinase α) it was 136 nM; against Human mTOR (FLAG-TOR), 0.835 nM.
Taken in the same sequence, the figures for `COC(=O)Nc1ccc(-c2nc(N3CC4CCC(C3)O4)c3cnn(C4CCC(=O)CC4)c3n2)cc1` [Example 136, methyl {4-[4-(8-oxa-3-azabicyclo[3.2.1]oct-3-yl)-1-(4-oxocyclohexyl)-1H-pyrazolo[3,4-d]pyrimidin-6-yl]phenyl}carbamate] were 1100 nM, 40 nM, above 10000 nM, 3900 nM and 6.25 nM.
Consider `CN1CCN(Cc2cc3nc(-c4ccc(NC(=O)Nc5cccnc5)cc4)nc(N4CC5CCC(C4)O5)c3s2)CC1` [Example 426, 1-(4-{6-[(4-methylpiperazin-1-yl)methyl]-4-(8-oxa-3-azabicyclo[3.2.1]oct-3-yl)thieno[3,2-d]pyrimidin-2-yl}phenyl)-3-pyridin-3-ylurea], for which the IC50 with breast line MDA468 is 380 nM; in the test on prostate line LNCap, 180 nM; at PI3K [1] (setting [3]) it was 2610 nM; at PI3K [2] (setting [4]), 148 nM; on Human mTOR (FLAG-TOR) (setting [5]) it was 4.7 nM.
As for `CN1CCN(c2ccc(NC(=O)Nc3ccc(-c4nc(N5C[C@@H]6C[C@H]5CO6)c5cnn(CC(F)(F)F)c5n4)cc3)cc2)CC1` [Example 295, 1-[4-(4-methylpiperazin-1-yl)phenyl]-3-(4-{4-[(1S,4S)-2-oxa-5-azabicyclo[2.2.1]hept-5-yl]-1-(2,2,2-trifluoroethyl)-1H-pyrazolo[3,4-d]pyrimidin-6-yl}phenyl)urea], the IC50 in the test with breast line MDA468 was found to be 13 nM; in the test with prostate line LNCap, 1 nM; at PI3K [1] (PI3 Kinase γ), 4670 nM; at PI3K [2] (PI3 Kinase α) it was 410 nM; at Human mTOR (FLAG-TOR) it was 2.33 nM.
Consider `COC(=O)N1CCC(n2ncc3c(N4C5CCC4COC5)nc(-c4ccc(NC(=O)Nc5ccncc5)cc4)nc32)CC1` [Example 362, methyl 4-[4-(3-oxa-8-azabicyclo[3.2.1]oct-8-yl)-6-{4-[(pyridin-4-ylcarbamoyl)amino]phenyl}-1H-pyrazolo[3,4-d]pyrimidin-1-yl]piperidine-1-carboxylate], for which the IC50 was 10 nM in the test with breast line MDA468; 3 nM in the test on prostate line LNCap; 2000 nM at PI3K [1] (setting [3]); 1930 nM on PI3K [2] (setting [4]); 0.26 nM against Human mTOR (FLAG-TOR) (setting [5]).

For the origin of these results see patent US8129371B2, “Thienopyrimidine and pyrazolopyrimidine compounds and their use as mTOR kinase and PI3 kinase inhibitors” (Wyeth LLC, priority 2007, dated 2012).
